# According to patent US9751857B2, “Hepatitis B antiviral agents” (NOVIRA THERAPEUTICS, INC., priority 2011, dated 2017):
# Experiments:
# [1] = tested on: HBV replication in HepG2-2.2.15 cells; test: Dot-blot assay of HBV replication; format: cell-based; conditions: Hepatitis B virus, 144 h
# Method: Compounds active in the HBV assembly assay are tested for their activity and toxicity in cellular assay. In the first anti-viral assay, the ability of compounds to inhibit HBV replication in an HBV-producing hepatoma cell line using the dot-blot method is evaluated.
# Briefly, confluent monolayers of HepG2-2.2.15 cells are incubated with complete medium containing various concentrations of a test compound. Three days later, the culture medium is replaced with fresh medium containing the appropriately diluted test compound. Six days following the initial administration of the test compound, the cell culture supernatant is collected, and cell lysis is performed. The samples are applied onto Nylos membranes and DNA is immobilized to the membrane by UV cross-linking. After pre-hybridization, the HBV probe is added and the hybridization is performed overnight. The membranes are exposed to the Kodak films; antiviral activity is calculated from the reduction in HBV DNA levels (EC50). The EC50 for antiviral activity is calculated from the dose response curves of active compounds.
# In the first anti-viral assay, the ability of compounds to inhibit HBV replication in an HBV-producing hepatoma cell line using the dot-blot method was evaluated.
# Confluent monolayers of HepG2-2.2.15 cells were incubated with complete medium containing various concentrations of a test compound. Three days later, the culture medium was replaced with fresh medium containing the appropriately diluted test compound. Six days following the initial administration of the test compound, the cell culture supernatant was collected, and cell lysis was performed. The samples were applied onto Nylos membranes and DNA was immobilized to the membrane by UV cross-linking. After pre-hybridization, the HBV probe was added and the hybridization was performed overnight. The membranes were exposed to the Kodak films; antiviral activity was calculated from the reduction in HBV DNA levels (EC50). The EC50 for antiviral activity was calculated from the dose response curves of active compounds. […]
# [2] = target: HBV C150Bo capsid protein (HBV CA protein) (Hepatitis B virus genotype D subtype adw, UniProt P03147, C107A/C48A/C61A/R150C); test: HBV assembly assay (fluorescence quenching in vitro assembly); format: biochemical; conditions: for Activity in HBV assembly assay: at 10 μM
# HBV C150Bo capsid protein (HBV CA protein), sequence (P03147 1-150 C48A/C61A/C107A/R150C): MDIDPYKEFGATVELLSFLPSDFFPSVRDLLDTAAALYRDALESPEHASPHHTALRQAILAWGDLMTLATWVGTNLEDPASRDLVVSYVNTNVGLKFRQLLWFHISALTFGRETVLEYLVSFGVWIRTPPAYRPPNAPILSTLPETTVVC
SMILES,inhibition at 10 µM [1],Activity in HBV assembly assay [2],EC50 in HBV assembly assay ([2]; control compounds)
"O=C(Nc1cc(F)c(F)c(F)c1)c1ccc(F)c(S(=O)(=O)N2CCC(O)C(F)C2)c1 (single isomer, unassigned) [960D1]",> 50%,+ (‘+’ indicates >50% activity at 10 μM),
"O=C(Nc1cc(F)c(F)c(F)c1)c1ccc(F)c(S(=O)(=O)N2CCC(O)C(F)C2)c1 (single isomer, unassigned) [960D2]",,+ (‘+’ indicates >50% activity at 10 μM),
CC1CN(S(=O)(=O)c2cccc(C(=O)Nc3cc(F)c(F)c(F)c3)c2)CCC1O (centres unmarked) [610D2],> 50%,+ (‘+’ indicates >50% activity at 10 μM),
O=C(Nc1ccc(F)c(C(F)F)c1)c1cccc(S(=O)(=O)N2CCCC2CO)c1 (centres unmarked) [677R],> 50%,+ (‘+’ indicates >50% activity at 10 μM),
O=C(Nc1ccc(F)c(Cl)c1)c1cccc(S(=O)(=O)N2CCC(O)C(Cc3ccccc3)C2)c1 (centres unmarked) [713D2],> 50%,+ (‘+’ indicates >50% activity at 10 μM),
O=C(Nc1ccc(F)c(Cl)c1)c1cccc(S(=O)(=O)N2CCC(O)C(CO)C2)c1 (centres unmarked) [719D1],> 50%,+ (‘+’ indicates >50% activity at 10 μM),
O=C(Nc1ccc(F)c(Cl)c1)c1cccc(S(=O)(=O)N2CCC(CO)C(O)C2)c1 (centres unmarked) [725D1],> 50%,+ (‘+’ indicates >50% activity at 10 μM),
CC1CN(S(=O)(=O)c2cccc(C(=O)Nc3cc(F)c(F)c(F)c3)c2)CCC1CCO (centres unmarked) [743D1],> 50%,+ (‘+’ indicates >50% activity at 10 μM),
O=C(Nc1ccc(F)c(C(F)F)c1)c1cccc(S(=O)(=O)N2CCC(O)C(F)C2)c1 (centres unmarked) [820D2],> 50%,+ (‘+’ indicates >50% activity at 10 μM),
O=C(Nc1cc(F)c(F)c(C(F)F)c1)c1cccc(S(=O)(=O)N2CCC(O)C(F)C2)c1 (centres unmarked) [824D2],> 50%,+ (‘+’ indicates >50% activity at 10 μM),
O=C(Nc1ccc(F)c(Br)c1)c1cccc(S(=O)(=O)NC2CCCC(O)C2)c1 (centres unmarked) [867D2],> 50%,+ (‘+’ indicates >50% activity at 10 μM),
O=C(Nc1cc(F)c(F)c(F)c1)c1ccc(F)c(S(=O)(=O)C2CCC(CO)C(O)C2)c1 (centres unmarked) [946D2],> 50%,+ (‘+’ indicates >50% activity at 10 μM),
O=C(Nc1ccc(F)c(Cl)c1)c1ccc(F)c(S(=O)(=O)N2CCC(CO)C(O)C2)c1 (centres unmarked) [955D1],> 50%,+ (‘+’ indicates >50% activity at 10 μM),
O=C(Nc1ccc(F)c(Cl)c1)c1ccc(F)c(S(=O)(=O)N2CCC(CO)C(O)C2)c1 (centres unmarked) [955D2],,+ (‘+’ indicates >50% activity at 10 μM),
O=C(Nc1ccc(F)c(Cl)c1)c1ccc(Cl)c(S(=O)(=O)N2CCCC2CO)c1 (centres unmarked) [1094S],> 50%,+ (‘+’ indicates >50% activity at 10 μM),
O=C(Nc1ccc(F)c(Cl)c1)c1cc(S(=O)(=O)NC2CC(O)C2)ccc1Cl (centres unmarked) [1134CT2],> 50%,+ (‘+’ indicates >50% activity at 10 μM),
O=C(Nc1cc(F)c(F)c(Cl)c1)c1ccc(F)c(S(=O)(=O)N2CCC(O)C(F)C2)c1 (centres unmarked) [1135D1],> 50%,+ (‘+’ indicates >50% activity at 10 μM),
O=C(Nc1cc(F)c(F)c(F)c1)c1cc(S(=O)(=O)NC2CC(O)C2)c(F)cc1Cl (centres unmarked) [1374CT1],> 50%,+ (‘+’ indicates >50% activity at 10 μM),
O=C(Nc1cc(F)c(F)c(F)c1)c1cc(S(=O)(=O)NC2CC(O)C2)c(F)cc1Cl (centres unmarked) [1374CT2],,+ (‘+’ indicates >50% activity at 10 μM),
O=C(Nc1ccc(F)c(F)c1)c1cc(S(=O)(=O)NC2CC(O)C2)c(F)cc1Cl (centres unmarked) [1378CT2],> 50%,+ (‘+’ indicates >50% activity at 10 μM),
"COC(=O)C1=C(C)NC(c2ccccn2)=NC1c1ccc(F)cc1Cl (centres unmarked) [HAP-1, reference compound]",,,consistent with the literature
O=C(Nc1cccc(Br)c1)c1cccc(S(=O)(=O)N2CCC(CO)CC2)c1 [compound 065],> 50%,+ (‘+’ indicates >50% activity at 10 μM),
O=C(Nc1cccc(Br)c1)c1cccc(S(=O)(=O)N2CC(O)C2)c1 [compound 078],> 50%,+ (‘+’ indicates >50% activity at 10 μM),

SMILES,inhibition at 10 µM [1],Activity in HBV assembly assay [2],EC50 in HBV assembly assay ([2]; control compounds)
CN(CCO)S(=O)(=O)c1cccc(C(=O)Nc2cccc(Br)c2)c1 [compound 079],> 50%,+ (‘+’ indicates >50% activity at 10 μM),
CC(=O)N1CCN(S(=O)(=O)c2cccc(C(=O)Nc3cccc(Br)c3)c2)CC1 [compound 119],> 50%,+ (‘+’ indicates >50% activity at 10 μM),
CCCC(=O)N1CCN(S(=O)(=O)c2cccc(C(=O)Nc3cccc(Br)c3)c2)CC1 [compound 121],> 50%,+ (‘+’ indicates >50% activity at 10 μM),
O=C(Nc1cccc(Br)c1)c1cccc(S(=O)(=O)N2CCN(c3ccncc3)CC2)c1 [compound 126],> 50%,+ (‘+’ indicates >50% activity at 10 μM),
O=C(Nc1cccc(Br)c1)c1cccc(S(=O)(=O)N2CCN(C(=O)C3(O)CC3)CC2)c1 [compound 129],> 50%,+ (‘+’ indicates >50% activity at 10 μM),
Cc1cc(NC(=O)c2cccc(S(=O)(=O)N3CCN(C(=O)C4CC4)CC3)c2)ccc1F [compound 148],> 50%,+ (‘+’ indicates >50% activity at 10 μM),
COC1CN(S(=O)(=O)c2cccc(C(=O)Nc3cccc(Cl)c3)c2)C1 [compound 191],> 50%,+ (‘+’ indicates >50% activity at 10 μM),
O=C(Nc1ccc(F)c(Cl)c1)c1cccc(S(=O)(=O)N2CCCC2CO)c1 (centres unmarked) [compound 208],> 50%,+ (‘+’ indicates >50% activity at 10 μM),
O=C(Nc1cc(F)c(F)c(F)c1)c1cccc(S(=O)(=O)N2CCC(CO)CC2)c1 [compound 258],> 50%,+ (‘+’ indicates >50% activity at 10 μM),
O=C(Nc1cc(F)c(F)c(F)c1)c1cccc(S(=O)(=O)N2CCC(O)CC2)c1 [compound 318],> 50%,+ (‘+’ indicates >50% activity at 10 μM),
CN(CCO)S(=O)(=O)c1cccc(C(=O)Nc2ccc(F)cc2)c1 [compound 332],> 50%,+ (‘+’ indicates >50% activity at 10 μM),
CN(CC(O)CO)S(=O)(=O)c1cccc(C(=O)Nc2cccc(Cl)c2)c1 (centres unmarked) [compound 366],> 50%,+ (‘+’ indicates >50% activity at 10 μM),
O=C(Nc1ccc(F)c(Br)c1)c1cccc(S(=O)(=O)N2CC(O)C2)c1 [compound 407],> 50%,+ (‘+’ indicates >50% activity at 10 μM),
N#Cc1cc(NC(=O)c2cccc(S(=O)(=O)N3CCC(O)CC3)c2)ccc1F [compound 419],> 50%,+ (‘+’ indicates >50% activity at 10 μM),
Cc1cc(NC(=O)c2cccc(S(=O)(=O)N3CCC(C)(CO)CC3)c2)ccc1F [compound 478],> 50%,+ (‘+’ indicates >50% activity at 10 μM),
O=C(Nc1ccc(F)c(Cl)c1)c1cccc(S(=O)(=O)N2CCC(O)(CO)CC2)c1 [compound 501],> 50%,+ (‘+’ indicates >50% activity at 10 μM),
O=C(Nc1ccc(F)c(Cl)c1)c1cccc(S(=O)(=O)N2CCC(O)(c3ccccc3)CC2)c1 [compound 541],> 50%,+ (‘+’ indicates >50% activity at 10 μM),
O=C(Nc1ccc(F)c(Cl)c1)c1cccc(S(=O)(=O)N2CCC(CO)(Cc3ccccc3)CC2)c1 [compound 553],> 50%,+ (‘+’ indicates >50% activity at 10 μM),
O=C(Nc1cc(F)c(F)c(Cl)c1)c1cccc(S(=O)(=O)N2CCC(O)CC2)c1 [compound 595],> 50%,+ (‘+’ indicates >50% activity at 10 μM),
O=C(Nc1ccc(F)c(CF)c1)c1cccc(S(=O)(=O)N2CC(O)C2)c1 [compound 646],> 50%,+ (‘+’ indicates >50% activity at 10 μM),
O=C(Nc1ccc(F)c(Br)c1)c1cccc(S(=O)(=O)N2CCC(O)(CO)CC2)c1 [compound 758],> 50%,+ (‘+’ indicates >50% activity at 10 μM),
O=C(Nc1cc(F)c(F)c(F)c1)c1cccc(S(=O)(=O)N2CCC(O)(c3ccc(F)cc3)CC2)c1 [compound 765],> 50%,+ (‘+’ indicates >50% activity at 10 μM),
